Laboratory results as given in patent US5178873A, “Essential fatty acid treatment” (Efamol Holdings PLC, priority 1990, dated 1993).

Experiments:
human epidermal PLA2 = test: inhibition of human epidermal PLA2 activity by fatty acids (1-palmitoyl 2-1-^14 C. palmitoyl phosphatidyl choline substrate); format: biochemical; conditions: for IC50: purified human epidermal enzyme, standard assay with 1-palmitoyl 2-1-^14 C. palmitoyl phosphatidyl choline; for ability to inhibit PLA2, ranking among fatty acids tested: PLA2 isolated from human skin, stated for both test systems
Method: (§1) In the experimental work on which the above discussion is based, epidermal PLA2 was prepared from isolated mouse or human epidermal cells by detergent solubilisation, ion exchange chromatography and gel filtration. Both enzymes had molecular weights in the region of 68,000, a pH optimum around 9.0 and an absolute requirement for calcium ions. Phospholipids were prepared as both unilamellar vesicles and detergent micelles. PLA2 activity was readily detected using these substrates, with no apparent preference for polar head group. For the standard assay, 1-palmitoyl 2-1-^14 C. palmitoyl phosphatidyl choline was used. The reaction was initiated by the addition of purified enzyme and terminated by the addition of chloroform/methanol/acetic acid (3:4:1). The free fatty acid was extracted, separated by thin layer chromatography and quantified by scintillation counting. Ranges of concentrations of various fatty acids were added to the reaction mixture to assess their ability to inhibit PLA2. Dose response curves were constructed and the IC50 value (the concentration of fatty acid required to inhibit enzyme activity by 50%) was estimated. Similar experiments were performed using macrophages isolated from rat peritoneal cavity by lavage.

rat macrophage PLA2 = test: inhibition of rat macrophage PLA2 activity by fatty acids; format: biochemical; conditions: for IC50: macrophages isolated from rat peritoneal cavity by lavage; for ability to inhibit PLA2, ranking among fatty acids tested: PLA2 from rat macrophages, stated for both test systems
Method: as §1

Structure (SMILES) | IC50 (human epidermal PLA2) | IC50 (rat macrophage PLA2) | ability to inhibit PLA2, ranking among fatty acids tested (human epidermal PLA2) | ability to inhibit PLA2, ranking among fatty acids tested (rat macrophage PLA2)
CC/C=C\C/C=C\C/C=C\CCCCCCCC(=O)O [cis 9,12,15-octadecatrienoic] | 45 ± 6 µM | 75 ± 9 µM | – | –
CC/C=C\C/C=C\C/C=C\C/C=C\C/C=C\CCCC(=O)O [cis 5,8,11,14,17-eicosapentaenoic] | 58 ± 4 µM | – | – | –
CCCCC/C=C\C/C=C\C/C=C\CCCCC(=O)O [cis 6,9,12-octadecatrienoic] | 52 ± 3 µM | – | – | –
CCCCCCCC/C=C\CCCCCCCCCC(=O)O [20:1 cis 11-eicosenoic, cis 11-eicosenoic] | > 100 µM | > 100 µM | – | –
CC/C=C\C/C=C\C/C=C\C/C=C\CCCCC(=O)O [delta-6,9,12,15-octadecatetraenoic acid] | 37 ± 3 µM | 52 ± 8 µM | the most potent of all the fatty acids tested | the most potent of all the fatty acids tested
CCCCC/C=C\C/C=C\C/C=C\C/C=C\CCCC(=O)O [20:4 cis 5,8,11,14-eicosatetraenoic (AA), cis 5,8,11,14-eicosatetraenoic] | 45 ± 8 µM | 65 ± 8 µM | closest to SA in its ability to inhibit PLA2 | closest to SA in its ability to inhibit PLA2

More lines, main results first:

IC50 (human epidermal PLA2) | IC50 (rat macrophage PLA2) | Structure (SMILES) | ability to inhibit PLA2, ranking among fatty acids tested (human epidermal PLA2) | ability to inhibit PLA2, ranking among fatty acids tested (rat macrophage PLA2)
> 100 µM | > 100 µM | CCCCCCCCCCC/C=C\CCCCC(=O)O [18:1 cis 6-octadecenoic, cis 6-octadecenoic] | – | –
87 ± 6 µM | – | CCCCC/C=C\C/C=C\CCCCCCCCCC(=O)O [20:2 cis 11,14-eicosadienoic, cis 11,14-eicosadienoic] | – | –
61 ± 5 µM | 71 ± 11 µM | CCCCC/C=C\C/C=C\C/C=C\CCCCCCC(=O)O [cis 8,11,14-eicosatrienoic] | – | –
85 ± 5 µM | – | CCCCC/C=C\C/C=C\CCCCCCCC(=O)O [18:2 cis 9,12-octadecadienoic (linoleic), delta-9,12-octadecadienoic acid] | – | –
